This is an account of results in patent publication US11738031B2, “Compositions and methods for preventing or treating muscle conditions” (The Board of Trustees of the Leland Stanford Junior …, priority 2017, dated 2023).

One series concerns Nurr1. The series is described as follows: Nurr1 expression in MuSCs (qRT-PCR, flow cytometry). As to conditions: 24 hr PGE2 treatment in culture. In kind it is cell-based, mouse. As for the experimental part: We analyzed NURR1 levels by flow cytometry using myogenic progenitors after a 24 hr treatment of vehicle (DMSO) or PGE2 (10 ng/ml), or from MuSCs transfected with shSCR or shNurr1 (see Knockdown assays section). We collected cells by incubation with 0.5% trypsin in PBS for 2 min at 37° C. We fixed the cells using 1.6% paraformaldehyde in PBS and then permeabilized them in ice-cold methanol. We then blocked them in staining buffer (0.5% BSA in PBS) for 30 min at room temperature and stained them with a Mouse monoclonal anti-Nurr1 (Abcam, catalog #ab41917, 1:75) primary antibody or anti-mouse IgG control (Jackson ImmunoResearch Laboratories). […] We analyzed the cells on a FACS LSR II cytometer using FACSDiva software (BD Biosciences) in the Stanford Shared FACS Facility, purchased using an NIH S10 Shared Instrument Grant (S10RR027431-01).
We isolated RNA from MuSCs using the RNeasy Micro Kit (Qiagen). […] To quantify relative transcript levels, we used 2^ΔΔCt to compare treated and untreated samples and expressed the results relative to Gapdh. […] TaqMan Assays (Applied Biosystems) were used to quantify Pax7, Myogenin, Nurr1, Ptger3 and Ptger4 in samples according to the manufacturer instructions with the TaqMan Universal PCR Master Mix reagent kit (Applied Biosystems). […]
(In general: Quantitative PCR measures a nucleic acid by following its amplification.)

The conditions of series [1]: cited from earlier work; for half-life: in vivo.
Series [2] concerns endogenous MuSCs in tibialis anterior (TA) muscles. The series is described as follows: BLI of endogenous MuSC expansion after intramuscular bupivacaine/dmPGE2 (Example 4). In kind it is in vivo, mouse. As for the experimental part: Double-transgenic Pax7^CreERT2;Rosa26-LSL-Luc mice were generated by crossing Pax7^CreERT2 mice and Rosa26-LSL-Luc mice obtained from Jackson Laboratory (Stock #005125). These genotypes were validated by appropriate PCR-based strategies. All mice from transgenic and wild-type strains were of young age (2-4 months). All experiments were conducted using age and gender-matched controls. As depicted in the experimental scheme shown in FIG. 23A, mice were treated with five consecutive daily intraperitoneal injections of tamoxifen to activate luciferase expression under the control of the Pax7 promoter. A week after the last tamoxifen injection, the tibialis anterior (TA) muscles were injected intramuscularly with 50 μL of a drug mixture containing 0.125%, 0.25%, or 0.5% bupivacaine (BPV) (Cayman Chemical Cat #16618) and 10 μg 16,16-dimethyl prostaglandin E2 (dmPGE2; Tocris, Catalog #4027) using a 30 gauge needle on a Hamilton syringe. The contralateral TA received 50 μL of a mixture containing 0.5% bupivacaine (BPV) and DMSO vehicle as baseline sham control. Bioluminescence was assayed at days 3, 7, 10 and 14 post-injury.
Bioluminescence imaging (BLI) was performed using a Xenogen-100 system, as previously described. Briefly, mice were anesthetized using isofluorane inhalation and administered 120 μL D-luciferin (0.1 mmol/kg, reconstituted in PBS; Caliper LifeSciences) by intraperitoneal injection. BLI was acquired with between 5-60 second exposure at F-stop=1.0 at 5 minutes after luciferin injection. Digital images were recorded and analyzed using Living Image software (Caliper LifeSciences). Images were analyzed with a consistent region-of-interest (ROI) placed over each hindlimb to calculate a bioluminescence signal. A bioluminescence signal was calculated in radiance (p s^−1 cm^−2 sr^−1) value of 10^4 to define a positive threshold signal over background. BLI imaging was performed bi-weekly for 2 weeks after coinjection of BPV with dmPGE2 or vehicle.
The data in FIGS. 23A-C and 24 are shown as the mean±s.e.m. with n=6 mice. […]

Each structure is given as a SMILES string. Like-named read-outs stand apart in the source and are kept apart here.

By half-life is commonly meant how long it takes for the measured level to halve. Turning to `CCCCC[C@H](O)/C=C/[C@H]1[C@H](O)CC(=O)[C@@H]1C/C=C\CCCC(=O)O` [PGE2, prostaglandin E2], the “Nurr1 mRNA and protein expression” value in the series with Nurr1 was “increased Nurr1 mRNA and protein expression”. Further, in series [1], the half-life in vivo result was “relatively short” and the half-life is 5 min. Moreover, the half-life result in series [1] (listed as Dinoprostone) is listed as “less than 5 minutes”.
As for `CCCCC(C)(C)[C@H](O)/C=C/[C@H]1[C@H](O)CC(=O)[C@@H]1C/C=C\CCCC(=O)O` [dmPGE2, 16,16-dimethyl prostaglandin E2], the “log fold change in BLI two weeks after injection” value in series [2] (50 μL into TA, BPV plus 10 μg dmPGE2 compared to BPV/vehicle, dmPGE2 only group) is “No detectable change”. Moreover, in series [2] (as stated in summary of Example 4), the “muscle regeneration vs dmPGE2 dose” value is on record as “more pronounced muscle regeneration”.
